Test results taken from patent US20230111310A1, “CARBOXYLIC ACID DERIVATIVE-SUBSTITUTED IMINO ARYL COMPOUND, PREPARATION METHOD THEREFOR, HERBICIDAL COMPOSITION AND USE THEREOF” (Qingdao Kingagroot Chemical Compound Co., Ltd., priority 2020, published 2023).

Tests used:
Test in all cases: Weeding effect in post-emergence stage
Assay type in all cases: in vivo
Settings in all cases: level of fresh weight growth control rate
Abutilon theophrasti = system: Abutilon theophrasti
Procedure, shortened: (§1)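 Seeds are sown in soil-filled pots under 0.5-2 cm soil and grown 2 weeks in greenhouse. Plants at 2-3 leaves are sprayed with compound (acetone, Tween 80, 1.5 liter/ha methyl oleate EC, water) at 7.5 to 500 g/ha. Damage is rated 3 weeks later, averaging three repeats.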

Alopecurus japonicus = system: Alopecurus japonicus
Procedure, shortened: as §1

Digitaria sanguinalis = system: Digitaria sanguinalis
Procedure, shortened: as §1

Eleusine indica = system: Eleusine indica
Procedure, shortened: as §1

Setaria viridis = system: Setaria viridis
Procedure, shortened: as §1

Echinochloa crusgalli = system: Echinochloa crusgalli
Procedure, shortened: as §1

| SMILES | Weeding effect in post-emergence stage, Abutilon theophrasti (Abutilon theophrasti; Dose 15 g/ha) | Weeding effect in post-emergence stage, Alopecurus japonicus (Alopecurus japonicus; Dose 15 g/ha) | Weeding effect in post-emergence stage, Digitaria sanguinalis (Digitaria sanguinalis; Dose 15 g/ha) | Weeding effect in post-emergence stage, Eleusine indica (Eleusine indica; Dose 15 g/ha) | Weeding effect in post-emergence stage, Setaria viridis (Setaria viridis; Dose 15 g/ha) | Weeding effect in post-emergence stage, Echinochloa crusgalli (Echinochloa crusgalli; Dose 15 g/ha) | Weeding effect in post-emergence stage, Abutilon theophrasti (Abutilon theophrasti; Dose 60 g/ha) | Weeding effect in post-emergence stage, Alopecurus japonicus (Alopecurus japonicus; Dose 60 g/ha) | Weeding effect in post-emergence stage, Digitaria sanguinalis (Digitaria sanguinalis; Dose 60 g/ha) | Weeding effect in post-emergence stage, Eleusine indica (Eleusine indica; Dose 60 g/ha) | Weeding effect in post-emergence stage, Setaria viridis (Setaria viridis; Dose 60 g/ha) | Weeding effect in post-emergence stage, Echinochloa crusgalli (Echinochloa crusgalli; Dose 60 g/ha) |
| --- | --- | --- | --- | --- | --- | --- | --- | --- | --- | --- | --- | --- |
| CCC(O/N=C/c1cc(-n2c(=O)n(C)c(=S)n(C)c2=O)c(F)cc1Cl)C(=O)OC (stereo not drawn) [Compound 72] | 5 (Level 5: growth control rate is above 85%) | 4 (Level 4: growth control rate is greater than or equal to 60% and less than 85%) | 5 (Level 5: growth control rate is above 85%) | 5 (Level 5: growth control rate is above 85%) | 5 (Level 5: growth control rate is above 85%) | 5 (Level 5: growth control rate is above 85%) | – | – | – | – | – | – |
| CCOC(=O)C(O/N=C/c1cc(-n2c(=O)n(C)c(=S)n(C)c2=O)c(F)cc1Cl)C1CC1 (stereo not drawn) [Compound 76] | 5 (Level 5: growth control rate is above 85%) | 5 (Level 5: growth control rate is above 85%) | 5 (Level 5: growth control rate is above 85%) | 5 (Level 5: growth control rate is above 85%) | 5 (Level 5: growth control rate is above 85%) | 5 (Level 5: growth control rate is above 85%) | – | – | – | – | – | – |
| COCC(O/N=C/c1cc(-n2c(=O)n(C)c(=S)n(C)c2=O)c(F)cc1Cl)C(=O)OC (stereo not drawn) [Compound 80] | 5 (Level 5: growth control rate is above 85%) | 5 (Level 5: growth control rate is above 85%) | 5 (Level 5: growth control rate is above 85%) | 5 (Level 5: growth control rate is above 85%) | 5 (Level 5: growth control rate is above 85%) | 5 (Level 5: growth control rate is above 85%) | – | – | – | – | – | – |
| COC(=O)C(C)O/N=C/c1cc(-n2c(=O)n(C)c(=S)n(C)c2=O)c(F)cc1Br (stereo not drawn) [Compound 83] | 5 (Level 5: growth control rate is above 85%) | 4 (Level 4: growth control rate is greater than or equal to 60% and less than 85%) | 4 (Level 4: growth control rate is greater than or equal to 60% and less than 85%) | 5 (Level 5: growth control rate is above 85%) | 5 (Level 5: growth control rate is above 85%) | 5 (Level 5: growth control rate is above 85%) | – | – | – | – | – | – |
| CCOC(=O)C(C)O/N=C/c1cc(-n2c(=O)n(C)c(=S)n(C)c2=O)c(F)cc1Br (stereo not drawn) [Compound 84] | 5 (Level 5: growth control rate is above 85%) | 4 (Level 4: growth control rate is greater than or equal to 60% and less than 85%) | 4 (Level 4: growth control rate is greater than or equal to 60% and less than 85%) | 5 (Level 5: growth control rate is above 85%) | 5 (Level 5: growth control rate is above 85%) | 5 (Level 5: growth control rate is above 85%) | – | – | – | – | – | – |
| COC(=O)C(C)(C)O/N=C/c1cc(-n2c(=O)n(C)c(=S)n(C)c2=O)c(F)cc1Cl [Compound 189] | 5 (Level 5: growth control rate is above 85%) | 4 (Level 4: growth control rate is greater than or equal to 60% and less than 85%) | 4 (Level 4: growth control rate is greater than or equal to 60% and less than 85%) | 5 (Level 5: growth control rate is above 85%) | 5 (Level 5: growth control rate is above 85%) | 4 (Level 4: growth control rate is greater than or equal to 60% and less than 85%) | – | – | – | – | – | – |
| COCCOC(=O)C(C)O/N=C/c1cc(-n2c(=O)cc(C(F)(F)F)n(C)c2=O)c(F)cc1Cl (stereo not drawn) [Compound 230] | 5 (Level 5: growth control rate is above 85%) | 5 (Level 5: growth control rate is above 85%) | 5 (Level 5: growth control rate is above 85%) | 5 (Level 5: growth control rate is above 85%) | 5 (Level 5: growth control rate is above 85%) | 5 (Level 5: growth control rate is above 85%) | – | – | – | – | – | – |
| CCOCCOC(=O)C(C)O/N=C/c1cc(-n2c(=O)cc(C(F)(F)F)n(C)c2=O)c(F)cc1Cl (stereo not drawn) [Compound 231] | 5 (Level 5: growth control rate is above 85%) | 5 (Level 5: growth control rate is above 85%) | 5 (Level 5: growth control rate is above 85%) | 5 (Level 5: growth control rate is above 85%) | 5 (Level 5: growth control rate is above 85%) | 5 (Level 5: growth control rate is above 85%) | – | – | – | – | – | – |
| CCCCOCCOC(=O)C(C)O/N=C/c1cc(-n2c(=O)cc(C(F)(F)F)n(C)c2=O)c(F)cc1Cl (stereo not drawn) [Compound 232] | 5 (Level 5: growth control rate is above 85%) | 5 (Level 5: growth control rate is above 85%) | 5 (Level 5: growth control rate is above 85%) | 5 (Level 5: growth control rate is above 85%) | 5 (Level 5: growth control rate is above 85%) | 5 (Level 5: growth control rate is above 85%) | – | – | – | – | – | – |
| CSCOC(=O)C(C)O/N=C/c1cc(-n2c(=O)cc(C(F)(F)F)n(C)c2=O)c(F)cc1Cl (stereo not drawn) [Compound 233] | 5 (Level 5: growth control rate is above 85%) | 5 (Level 5: growth control rate is above 85%) | 5 (Level 5: growth control rate is above 85%) | 5 (Level 5: growth control rate is above 85%) | 5 (Level 5: growth control rate is above 85%) | 5 (Level 5: growth control rate is above 85%) | – | – | – | – | – | – |
| CSCCOC(=O)C(C)O/N=C/c1cc(-n2c(=O)cc(C(F)(F)F)n(C)c2=O)c(F)cc1Cl (stereo not drawn) [Compound 234] | 5 (Level 5: growth control rate is above 85%) | 5 (Level 5: growth control rate is above 85%) | 5 (Level 5: growth control rate is above 85%) | 5 (Level 5: growth control rate is above 85%) | 5 (Level 5: growth control rate is above 85%) | 5 (Level 5: growth control rate is above 85%) | – | – | – | – | – | – |
| CCCOC(=O)OC(=O)C(C)O/N=C/c1cc(-n2c(=O)cc(C(F)(F)F)n(C)c2=O)c(F)cc1Cl (stereo not drawn) [Compound 236] | – | – | – | – | – | – | 5 (Level 5: growth control rate is above 85%) | 5 (Level 5: growth control rate is above 85%) | 5 (Level 5: growth control rate is above 85%) | 5 (Level 5: growth control rate is above 85%) | 5 (Level 5: growth control rate is above 85%) | 5 (Level 5: growth control rate is above 85%) |
| CC(=O)COC(=O)C(C)O/N=C/c1cc(-n2c(=O)cc(C(F)(F)F)n(C)c2=O)c(F)cc1Cl (stereo not drawn) [Compound 238] | 5 (Level 5: growth control rate is above 85%) | 5 (Level 5: growth control rate is above 85%) | 5 (Level 5: growth control rate is above 85%) | 5 (Level 5: growth control rate is above 85%) | 5 (Level 5: growth control rate is above 85%) | 5 (Level 5: growth control rate is above 85%) | – | – | – | – | – | – |
